For data set [1], the system named is γ-aminobutyric acid aminotransferase (GABA-AT). As to conditions: statement in the background section; cited from earlier work.
The test system of data set [2] is various microsomal cytochrome P450 enzymes. As to conditions: cited from earlier work.
The target in data set [3] is hERG potassium ion channel (Homo sapiens, UniProt Q12809). Conditions: cited from earlier work.
Data set [4] relates to release of dopamine in the corpus striatum. Conditions: rats; after exposure to cocaine or nicotine; compared with previous inhibitors of GABA-AT; cited from earlier work.
The test system of the next data set is alanine aminotransferase. Conditions: off-target aminotransferase enzyme; cited from earlier work.
For data set [5], the system named is aspartate aminotransferase. As to conditions: off-target aminotransferase enzyme; cited from earlier work.
The conditions of data set [6]: with prolonged use; cited from earlier work.
Another data set relates to multiple GABA receptors. Conditions: cited from earlier work.

Chain of hERG potassium ion channel (Q12809 whole entry): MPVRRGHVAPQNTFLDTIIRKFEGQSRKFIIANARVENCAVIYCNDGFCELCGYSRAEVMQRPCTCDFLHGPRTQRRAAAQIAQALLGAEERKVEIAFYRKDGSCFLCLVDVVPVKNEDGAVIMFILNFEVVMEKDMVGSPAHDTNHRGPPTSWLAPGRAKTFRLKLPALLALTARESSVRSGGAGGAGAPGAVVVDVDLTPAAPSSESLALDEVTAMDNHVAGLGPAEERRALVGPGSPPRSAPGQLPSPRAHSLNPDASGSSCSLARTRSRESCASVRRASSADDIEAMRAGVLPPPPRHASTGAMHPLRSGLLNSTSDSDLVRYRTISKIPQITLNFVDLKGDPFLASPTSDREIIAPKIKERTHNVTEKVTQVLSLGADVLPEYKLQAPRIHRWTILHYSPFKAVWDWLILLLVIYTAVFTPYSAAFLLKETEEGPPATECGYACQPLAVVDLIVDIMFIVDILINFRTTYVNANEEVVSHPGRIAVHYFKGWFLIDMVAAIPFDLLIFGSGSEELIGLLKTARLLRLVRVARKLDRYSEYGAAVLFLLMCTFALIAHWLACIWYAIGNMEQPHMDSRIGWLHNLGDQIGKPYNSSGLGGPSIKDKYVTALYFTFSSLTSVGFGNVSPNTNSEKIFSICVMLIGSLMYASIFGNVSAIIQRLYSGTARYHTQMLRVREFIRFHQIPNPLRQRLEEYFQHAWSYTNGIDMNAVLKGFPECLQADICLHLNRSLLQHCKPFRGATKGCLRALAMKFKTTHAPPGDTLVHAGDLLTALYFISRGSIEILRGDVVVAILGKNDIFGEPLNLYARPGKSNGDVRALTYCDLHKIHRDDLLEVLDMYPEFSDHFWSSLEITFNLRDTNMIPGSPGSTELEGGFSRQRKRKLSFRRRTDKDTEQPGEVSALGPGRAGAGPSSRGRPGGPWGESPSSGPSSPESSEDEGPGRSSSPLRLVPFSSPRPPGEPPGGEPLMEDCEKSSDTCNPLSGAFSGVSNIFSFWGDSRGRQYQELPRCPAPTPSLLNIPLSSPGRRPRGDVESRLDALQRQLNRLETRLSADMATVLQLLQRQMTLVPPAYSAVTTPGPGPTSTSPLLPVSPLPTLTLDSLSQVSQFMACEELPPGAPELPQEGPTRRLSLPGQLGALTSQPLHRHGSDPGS

As usually defined, the melting point is the temperature, or range, at which the solid turns liquid. Consider `O=C1N[C@@H]2C(=C(F)F)C[C@H]1[C@H]2Br`, for which the melting point lay in the range of 139 to 141 °C.
For the compound `N[C@H]1C=C(C(=O)O)CC1=C(F)F` [(S)-3-amino-4-(difluoromethylenyl)cyclopent-1-ene-1-carboxylic acid], in [1], the “inhibitor of GABA-AT” value was “inhibitor”. Also, in [2], the “inhibition of various microsomal cytochrome P450 enzymes” value was “does not inhibit”. Also, the “inhibition of the hERG potassium ion channel” value in data set [3] was “does not inhibit”. The “suppressing the release of dopamine in the corpus striatum” value in data set [4] was “superior”. In addition, the “inhibition of alanine aminotransferase” value in the data set on alanine aminotransferase is reported as “does not inhibit”. Also, the “inhibition of aspartate aminotransferase” value in data set [5] is on record as “does not inhibit”.
`C=CC(N)CCC(=O)O` (stereo not shown) [Vigabatrin, 4-Aminohex-5-enoic acid]: the “retinal damage, share of patients” value in [6] is reported as 25-40 % of patients. For the same compound, in [1], the “inhibitor of GABA-AT” value is reported as “inhibitor”. Besides, the “inhibition of multiple GABA receptors” value in the data set with multiple GABA receptors was “inhibits”.

The record behind these values is patent US10836708B2, “Process for the synthesis of (s) 3-amino-4-(difluoromethylenyl)cyclopent-1-ene-1-carboxylic acid” (NORTHWESTERN UNIVERSITY, priority 2018, dated 2020).
